Oligonucleotides are written 5' to 3', each unit as a sugar letter and its base; * is a phosphorothioate linkage, no mark a phosphodiester; rarer units and linkages stand in square brackets, end groups in braces. Plain capitals give the bases only. e = 2'-O-(2-methoxyethyl) (MOE); [5mC] = 5-methylcytosine
Test system: GRN mRNA
Assay: GRN mRNA qPCR in SK-N-AS cells transfected with ASOs
Assay type: cell-based, human
Conditions: SK-N-AS; for 120 nM FC (GRN mRNA) / hGRN mRNA FC: 120 nM
Method: The best ASOs based on increased GRN mRNA fold-change were selected for further characterization in dose titration studies. Briefly, human neuroblastoma SK-N-AS cells were transfected with 20 to 160 nM of ASOs CO-3423, CO-3431, CO-3463, and CO-3503. A steric non-targeting control ASO (sNTC) was used as a control. Cells were collected for mRNA analysis after 48 hours and GRN mRNA quantified by qPCR. Housekeeping genes for normalization were GAPDH and PPIA, and mRNA fold change (FC) was normalized to sNTC.
36 additional ASOs were designed with different modifications and base walking around selected ASOs. The effect of increasing doses of these ASOs was assessed in the human neuroblastoma cell line SK-N-AS following transfection. Relative GRN mRNA levels in SK-N-AS cells after treatment was assessed 48-hours post-transfection, and data from exemplary ASOs is shown in FIGS. 5A and 5B.
Additional chemical modifications, including LNA, modifications were made to CO-3423. SK-N-AS cells were transfected with increasing concentrations of the LNA/PS modified ASOs and GRN mRNA quantified by qPCR. ASOs including different LNA modifications of CO-3423 had similar efficacy (i.e, similar increased GRN mRNA expression). GRN mRNA was normalized to the average fold-change of cells treated with two steric non-targeting control ASOs (CO-3772 and CO-1589 (sNTC1)).
The effect of ASO length on GRN gene expression modulation was also investigated. SK-N-AS cells were transfected with increasing concentrations of the longer ASOs and GRN mRNA quantified by qPCR. Increasing the length of CO-3423 increased the potency of the ASO, as shown in Table 4. mRNA was normalized to the average fold change of cells treated with two steric non-targeting control ASOs (CO-3772 and CO-1589 (sNTC1)).
To determine whether variations in the PO/PS internucleotide bond linkages impacted the ability of CO-3423 and CO-3431 to modulate gene expression, several modified ASOs based on these parent ASOs were prepared. SK-N-AS cells were transfected with increasing concentrations of the mixed PO/PS bond ASOs described in Tables 5 and 6, and GRN mRNA quantified by qPCR.
GRN mRNA fold-change after treatment with mixed PO/PS bond versions of CO-3423 is shown in Table 5. mRNA was normalized to the average fold change of cells treated with steric nontargeting controls (CO-3772, CO-1589 (sNTC1), and CO-1929 (sNTC3)).
GRN mRNA fold-change after treatment with mixed PO/PS bond versions of CO-3431 is shown in Table 6. mRNA was normalized as described above.
To further assess the effect of additional modifications on the ability of CO-3423 parent ASO to modulate GRN gene expression, additional LNA tiling and PO bond modifications were incorporated to CO-3423. SK-N-AS cells were transfected with increasing concentrations of the modified ASOs and GRN mRNA quantified by qPCR. CO-3423 was used for comparison. GRN mRNA was normalized to the average fold-change of cells treated with a steric non-targeting control ASO, CO-1589 (sNTC1).
To further assess the effect of modifications on the ability of CO-3463 parent ASO to modulate GRN gene expression, ASOs based on this ASOS incorporating additional LNA modifications were prepared and compared to […]. SK-N-AS cells were transfected with increasing concentrations of the ASOs and GRN mRNA quantified by qPCR. GRN mRNA was normalized to the average fold-change of cells treated with a steric non-targeting control ASO, CO-1589 (sNTC1).
68 additional ASOs were designed to target intergenic enhancers (eRNA). 48 hours post-transfection, the cells were collected for GRN mRNA analysis using qPCR. CO-1589, a steric nontargeting control ASO, was used as a control. GRN mRNA was normalized to cells treated with CO-1589.
The best hits from these ASOs were tested in a dose escalation study. Cells were incubated for 48 hours. Subsequently, the cells were collected for mRNA quantification via RT-qPCR. […]

[1] = Table 12, normalized to CO-1589
[2] = Table 11, 48 hours, normalized to CO-1589
[3] = Table 8, normalized to CO-1589 (sNTC1)
[4] = Table 13, normalized to CO-1589
[5] = Table 9, 48 hours post-transfection, normalized to CO-1589
[6] = Table 10, 48 hours, normalized to CO-1589

With “CO-6521: ASO based on parent ASO CO-3462 (antisense eT*eA*eG*eG*eA*eG*eA*eA*eT*e[5mC]eGe[5mC]eTeTeTeGeGeG*eA*eG)” the “30 nM FC (GRN mRNA)” value [1] was 1.1 FC, the “60 nM FC (GRN mRNA)” value [1] was 1.2 FC and the “120 nM FC (GRN mRNA)” value [1] was 1.1 FC.

With “CO-6520: ASO based on parent ASO CO-3462 (antisense eT*eA*eG*eG*eA*eG*eA*eAeTe[5mC]eGe[5mC]eTeTeTeGeGeG*eA*eG)” the “30 nM FC (GRN mRNA)” value [1] was 1.0 FC, the “60 nM FC (GRN mRNA)” value [1] was 1.2 FC and the “120 nM FC (GRN mRNA)” value [1] was 0.8 FC.

With “CO-6433: ASO designed to target an intragenic enhancer RNA (eRNA) (eG*e[5mC]*eA*e[5mC]*eT*eG*e[5mC]*eT*eG*e[5mC]*e[5mC]*e[5mC]*e[5mC]*e[5mC]*eA*eA*eG*eA*e[5mC]*eA)” the “hGRN mRNA FC” value [2] was 0.9 FC.

In the case of “CO-6455: ASO designed to target an intragenic enhancer RNA (eRNA) (e[5mC]*eT*e[5mC]*eA*eT*eT*eG*eA*e[5mC]*eT*e[5mC]*e[5mC]*eA*eA*eG*eT*eG*eT*eA*eG)”, the “hGRN mRNA FC” value [2] is reported as 0.9 FC.

For “CO-5289: ASO based on CO-3463 incorporating additional LNA modifications (antisense GGATAGGATAGGAGCGAGCC; LNA/MOE mixmer, PS backbone, 5-methylcytosine; listed as RNA; modified_base 1..20: mod_base = OTHER; note = Phosphorothioate linkage; modified_base 1..2: mod_base = OTHER; note = locked nucleic acid; modified_base 3: mod_base = OTHER; note = 2'-O-(2-methoxyethyl) ribonucleotide; modified_base 4: mod_base)”, the “GRN mRNA upregulation as compared to control ASO CO-1589” value (Table 8 series) was 2 fold, the “7.5 nM FC (GRN mRNA)” value [3] was 1.4 FC and the “13 nM FC (GRN mRNA)” value (Table 8, 13 nM, normalized to CO-1589 (sNTC1)) was 1.4 FC. The “30 nM FC (GRN mRNA)” value [3] was 1.5 FC, the “60 nM FC (GRN mRNA)” value [3] was 1.9 FC and the “120 nM FC (GRN mRNA)” value [3] was 1.9 FC. For the same substance, the “150 nM FC (GRN mRNA)” value (Table 8, 150 nM, normalized to CO-1589 (sNTC1)) was 1.9 FC.

With “CO-6437: ASO designed to target an intragenic enhancer RNA (eRNA) (eG*eA*e[5mC]*eA*eA*eA*eG*eA*e[5mC]*e[5mC]*e[5mC]*eA*e[5mC]*e[5mC]*e[5mC]*e[5mC]*eT*eG*eT*e[5mC])” the “hGRN mRNA FC” value [2] was 1.1 FC.

For “CO-6429: ASO based on parent ASOs CO-4363 and CO-4364 (eA*eG*eG*eG*eA*e[5mC]*eT*eT*eG*eG*eG*eA*eG*eT*eG*eG*eT*eG*eA*e[5mC]*eT*eG*eA*eA*e[5mC]*e[5mC])”, the “30 nM FC (GRN mRNA)” value [4] was 1.0 FC, the “60 nM FC (GRN mRNA)” value [4] was 1.5 FC and the “120 nM FC (GRN mRNA)” value [4] was 1.4 FC.

For “CO-4585: ASO designed to target intergenic enhancers (eRNA) (antisense eT*e[5mC]*eG*eA*eA*eT*e[5mC]*eT*e[5mC]*e[5mC]*eG*eG*e[5mC]*eT*e[5mC]*eT*eT*e[5mC]*eA*e[5mC])”, the “hGRN mRNA FC” value [5] was 1.4 FC.

For “CO-4617: ASO designed to target intergenic enhancers (eRNA) (antisense eG*eG*eA*eG*eA*eT*eA*eG*eG*eG*eT*e[5mC]*eA*e[5mC]*eG*eT*eA*e[5mC]*eT*eT)”, the “hGRN mRNA FC” value [5] was 1.2 FC.

For “CO-4622: ASO designed to target intergenic enhancers (eRNA) (antisense eA*e[5mC]*eA*eG*eT*eG*eG*e[5mC]*e[5mC]*eG*e[5mC]*eA*eT*eA*eA*eA*eT*eT*eT*e[5mC])”, the “hit identification (GRN mRNA dose escalation)” value (3.75 nM to 120 nM, 48 hours) was “initial hits”, the “hGRN mRNA FC” value [5] was 1.0 FC and the “3.75 nM FC (GRN mRNA)” value (Table 10, 3.75 nM, 48 hours, normalized to CO-1589) was 1.0 FC. The “7.5 nM FC (GRN mRNA)” value [6] was 1.0 FC, the “15 nM FC (GRN mRNA)” value (Table 10, 15 nM, 48 hours, normalized to CO-1589) was 1.0 FC and the “30 nM FC (GRN mRNA)” value [6] was 1.0 FC. For the same substance, the “60 nM FC (GRN mRNA)” value [6] was 1.1 FC and the “120 nM FC (GRN mRNA)” value [6] was 1.1 FC.

For “CO-4588: ASO designed to target intergenic enhancers (eRNA) (antisense eG*e[5mC]*eT*eG*eG*eT*eT*eT*e[5mC]*eT*e[5mC]*eT*eG*eT*eT*eA*eG*eG*eA*e[5mC])”, the “hGRN mRNA FC” value [5] was 0.9 FC.

“CO-4618: ASO designed to target intergenic enhancers (eRNA) (antisense eA*eT*eA*eG*eG*eT*e[5mC]*eA*eG*eG*eG*eA*eA*eT*eG*e[5mC]*e[5mC]*eG*e[5mC]*e[5mC])” was tested, and the “hGRN mRNA FC” value [5] was 1.3 FC.

For “CO-4627: ASO designed to target intergenic enhancers (eRNA) (antisense eA*e[5mC]*eT*e[5mC]*eA*eA*eT*eG*e[5mC]*eA*eT*eA*eG*e[5mC]*eA*eG*eA*eA*eT*eA)”, the “hGRN mRNA FC” value [5] was 1.3 FC.

For “CO-4615: ASO designed to target intergenic enhancers (eRNA) (antisense e[5mC]*eA*eT*eT*eT*e[5mC]*eA*e[5mC]*eA*e[5mC]*eT*eT*eG*eT*eA*eT*eG*eA*eG*e[5mC])”, the “hGRN mRNA FC” value [5] was 1.0 FC.

“CO-4651: ASO designed to target intergenic enhancers (eRNA) (antisense eT*eA*eG*eG*e[5mC]*eA*e[5mC]*e[5mC]*e[5mC]*eA*eA*eG*eG*e[5mC]*eT*eT*eT*eA*eT*eT)” was tested, and the “hGRN mRNA FC” value [5] was 1.3 FC.

“CO-4608: ASO designed to target intergenic enhancers (eRNA) (antisense eT*eA*eG*eA*e[5mC]*eA*e[5mC]*eT*eT*e[5mC]*e[5mC]*eA*eG*e[5mC]*e[5mC]*e[5mC]*eA*e[5mC]*e[5mC]*eT)” was tested, and the “hGRN mRNA FC” value [5] was 1.1 FC.

In the case of “CO-4600: ASO designed to target intergenic enhancers (eRNA) (antisense eT*eT*eA*eG*e[5mC]*eA*e[5mC]*eG*eT*eG*eG*eA*e[5mC]*eT*e[5mC]*e[5mC]*eG*eA*eG*eG)”, the “hGRN mRNA FC” value [5] is reported as 1.0 FC.

“CO-6445: ASO designed to target an intragenic enhancer RNA (eRNA) (eG*eT*eG*eG*eG*eA*eA*eG*eT*eA*eT*eG*eG*e[5mC]*eT*eG*e[5mC]*eT*eG*e[5mC])” was tested, and the “hGRN mRNA FC” value [2] was 1.3 FC.

For “CO-6386: ASO based on parent ASO CO-3462 (antisense eG*e[5mC]*eG*eA*eG*e[5mC]*e[5mC]*eA*eG*e[5mC]*eT*e[5mC]*eA*eG*eT*eA*eG*e[5mC]*eT*e[5mC])”, the “30 nM FC (GRN mRNA)” value [1] was 1.2 FC, the “60 nM FC (GRN mRNA)” value [1] was 0.9 FC and the “120 nM FC (GRN mRNA)” value [1] was 1.1 FC.

With “CO-6447: ASO designed to target an intragenic enhancer RNA (eRNA) (eA*eT*eG*eG*eT*eT*e[5mC]*eT*eA*e[5mC]*e[5mC]*eT*eG*e[5mC]*eT*eG*eT*eG*eA*eG)” the “hGRN mRNA FC” value [2] was 1.2 FC.

— patent publication US20250243488A1, “METHODS OF MODULATING PROGRANULIN EXPRESSION USING ANTISENSE OLIGONUCLEOTIDES TARGETING REGULATORY RNAS” (Camp4 Therapeutics Corporation, priority 2022, published 2025)
